Publication PMC11279551, “Pharmacokinetics and Enterohepatic Circulation of 2-(Quinoline-8-carboxamido)benzoic Acid (2-QBA) in Mice” (Pharmaceutics, 2024)
Where two headings read alike, the source gives them in different places.

Legend:
[1] = Effect of activated charcoal (AC) on the pharmacokinetics of 2-QBA; type: in vivo; conditions: mice; for AUC(0-t): read-out: AUC24h
Experimental: To elucidate the reabsorption mechanism of 2-QBA, a pharmacokinetic study of 2-QBA was conducted with activated charcoal (AC) administered PO. Male ICR mice (7 weeks old, 25–30 g) were fasted for 14–16 h prior to the administration of 2-QBA.
In total, […] were administered 2-QBA (1 mg/kg/3 mL) via the tail vein. Two hours after the 2-QBA dosing, AC (0.8 g/kg/5 mL in distilled water) or a vehicle (5 mL/kg distilled water) was administrated via oral gavage. Each group included ten mice who were randomly divided into two groups for sparse sampling. Blood collection was performed at 0.083, 0.5, 2, and 8 h from 5 mice and at 0.25, 1, 4, and 24 h from another 5 mice, as described previously. Four mice treated with either AC (0.8 g/kg) or the vehicle 2 h after the 2-QBA IV dosing (1 mg/kg) were returned to a metabolic cage to collect the urine and feces samples. The urine and feces samples were collected for 72 h.
Next, 2-QBA was administered PO (2 mg/kg/5 mL) with or without AC (0.8 g/kg in 3 mL of DW), which was administered via oral gavage 2 h after the 2-QBA dosing. Each group included eight mice who were randomly divided into two groups for sparse sampling. Blood collection was performed at 0.25, 0.75, 2, and 8 h from 4 mice and at 0.5, 1, 4, and 24 h from another 4 mice, as described previously. Four mice treated with either AC (0.8 g/kg) or vehicle 2 h after the 2-QBA PO dosing (2 mg/kg) were returned to a metabolic cage to collect the urine and feces samples. The urine and feces samples were collected for 72 h.
Aliquots of plasma samples (30 μL) were added to 120 μL of IS solution. The mixture was vigorously vortexed for 5 min and then centrifuged at 13,000× g for 5 min. The supernatant was transferred to autosampler vials. Subsequently, a 3 μL aliquot was injected into the LC-MS/MS system. Aliquots (30 μL) of urine and 10% feces homogenate samples were added to 60 μL of 150 mM sodium acetate buffer (pH 5.0) in the presence or absence of β-glucuronidase (900 unit) at 37 °C for 2 h. The reaction was quenched by adding four volumes of ice-cold IS solution. The mixture was vigorously vortexed for 5 min, followed by centrifugation at 13,000× g for 5 min. The supernatant was transferred to autosampler vials and subsequently a 3 μL aliquot was injected into the LC-MS/MS system.
(§1) WinNonlin 5.1 software (Pharsight Co., Mountain View, CA, USA) was used to calculate the pharmacokinetic parameters. AUClast and AUCinf indicate the areas under the plasma concentration curve from 0 h to the last sample and from 0 h to infinity, respectively; these were estimated using the linear trapezoidal method. T1/2 is the elimination half-life, which is estimated from the elimination coefficient (k) (i.e., 0.693/k), and MRT is the mean residence time. CL is the total clearance, which is calculated by dividing the dose by AUCinf. Vdss is the volume of the distribution at a steady state, calculated from MRTxCL. CLrenal and CLfeces are calculated by dividing the amount excreted in urine and feces by the AUCinf, respectively. CLmetabolism is calculated by subtracting CLrenal and CLfeces from CL. Cmax and Tmax are the maximum plasma concentration and time to reach Cmax, respectively. BA is calculated by dividing the dose-normalized AUCinf for PO administration (AUCinf/PO dose) by the dose-normalized AUCinf for IV administration (AUCinf/IV dose). All data are expressed as the mean ± standard deviation (SD).

[2] = Stability of 2-QBA in mouse plasma (QC samples); type: in vitro ADME; conditions: for Freeze-thaw cycle stability, Accuracy / Bench-top stability, Accuracy: mouse plasma; for Freeze-thaw cycle stability, Accuracy: 3 cycles; for Bench-top stability, Accuracy: 25 °C for 6 h; for Autosampler stability, Accuracy: prepared plasma samples, 6 °C for 24 h
Experimental: The stability of 2-QBA in mouse plasma was tested in terms of its benchtop stability, freeze–thaw stability, and autosampler stability. In all stability tests, three sets of QC samples (3, 100, and 400 ng/mL) were prepared.
The benchtop stability was tested by incubating the samples at 25 °C for 6 h. For the freeze–thaw stability, the samples were placed at −80 °C for over 12 h for freezing and thawed at 25 °C for 6 h as one cycle; the same protocol was repeated for three cycles. Finally, the autosampler stability was tested by placing the prepared QC samples in the autosampler at 6 °C for 24 h. After analyzing all of the stability test samples, the concentrations were calculated using freshly prepared calibration standards.

Plasma protein binding = type: in vitro ADME; conditions: n = 6, read-out: plasma protein binding rate (converted)
[3] = Urinary and fecal excretion after IV or PO administration (metabolic cage); type: in vivo; conditions: mice, IV 1.0 mg/kg
Experimental: We also investigated the excretion profile of 2-QBA after IV and PO administration at doses of 1 mg/kg for IV and 2 mg/kg for PO. After IV or PO administration of 2-QBA, the mice were returned to a metabolic cage to collect the urine and feces samples. The urine and feces samples were collected during the periods of 0–24 h, 24–48 h, 48–72 h, and 72–96 h. The urine ball was washed using equal volumes of methanol and added to the urine samples. The fecal samples were homogenized with 9 volumes of water to yield 10% fecal homogenates. The aliquots (30 μL) of urine and 10% fecal homogenate samples were stored at −80 °C until the analysis of the 2-QBA. For the analysis of the 2-QBA, 120 μL of IS solution was added to the 30 μL aliquot of urine and 10% fecal homogenate samples. The mixture was vigorously vortexed for 5 min and then centrifuged at 13,000× g for 5 min. The supernatant was transferred to autosampler vials. Subsequently, a 3 μL aliquot was injected into the LC-MS/MS system.
as §1, with “Cmax and Tmax are the maximum plasma concentration and time to reach Cmax, respectively.” left out

[4] = male, ICR, mouse, plasma, iv, 1 mg/kg, IV 1 mg/kg, AC (0.8 g/kg)
[5] = male, ICR, mouse, plasma, iv, 1 mg/kg, IV 1 mg/kg, Control
[6] = male, ICR, mouse, plasma, po, 2 mg/kg, PO 2 mg/kg, AC (0.8 g/kg)
[7] = male, ICR, mouse, plasma, po, 2 mg/kg, PO 2 mg/kg, Control

Q: What does the source list for `O=C(O)c1ccccc1NC(=O)c1cccc2cccnc12` [2-QBA, 2-(quinoline-8-carboxamido)benzoic acid]?
A: AUC(0-t) ([1]; male, ICR, mouse, plasma, intravenous, 1 mg/kg, IV 1 mg/kg, AC (0.8 g/kg) PO 2 h after dosing): 1180 ± 264 ng·h/mL; AUC(0-inf) [1, 4]: 1210 ± 293 ng·h/mL; MRT [1, 4]: 2.48 ± 2.56 h; clearance [1, 4]: 14.5 ± 3.95 mL/min/kg; half-life [1, 4]: 3.18 ± 2.52 h; AUC(0-inf) [1, 5]: 1330 ± 422 ng·h/mL; MRT [1, 5]: 2.88 ± 1.14 h; clearance [1, 5]: 13.9 ± 5.41 mL/min/kg; half-life [1, 5]: 3.88 ± 1.72 h; AUC(0-t) ([1]; male, ICR, mouse, plasma, iv, 1 mg/kg, IV 1 mg/kg, Control (vehicle 2 h after dosing)): 1270 ± 361 ng·h/mL; AUC(0-inf) [1, 6]: 836 ± 209 ng·h/mL; MRT [1, 6]: 7 ± 2.48 h; half-life [1, 6]: 5.5 ± 2.24 h; Cmax ([1]; male, ICR, mouse, plasma, po, 2 mg/kg, PO 2 mg/kg, AC (0.8 g/kg) 2 h after dosing): 315 ± 106 ng/mL; AUC(0-t) [1, 6]: 650 ± 305 ng·h/mL; AUC(0-inf) [1, 7]: 2110 ± 608 ng·h/mL; Cmax [1, 7]: 399 ± 90.7 ng/mL; MRT [1, 7]: 8.49 ± 3.08 h; half-life [1, 7]: 6.05 ± 2.04 h; AUC(0-t) [1, 7]: 1930 ± 453 ng·h/mL; Tmax ([1]; male, ICR, mouse, plasma, PO 2 mg/kg, Control): 0.25 h; BA ([1]; PO 2 mg/kg, AC (0.8 g/kg)): 34.5%; BA ([1]; PO 2 mg/kg, Control): 79.8%; Freeze-thaw cycle stability, Accuracy ([2]; nominal 100 ng/mL): 104.3%; Freeze-thaw cycle stability, Accuracy ([2]; nominal 400 ng/mL): 106.4%; Bench-top stability, Accuracy ([2]; nominal 3 ng/mL): 98.51%; Bench-top stability, Accuracy ([2]; nominal 100 ng/mL): 89.14%; Bench-top stability, Accuracy ([2]; nominal 400 ng/mL): 91.55%; Autosampler stability, Accuracy ([2]; nominal 3 ng/mL): 109.5%; Autosampler stability, Accuracy ([2]; nominal 100 ng/mL): 103.1%; Autosampler stability, Accuracy ([2]; nominal 400 ng/mL): 108.7%; fraction unbound (Plasma protein binding): 0.128; CL renal ([3]; male, ICR, mouse, urine): 5.47 ± 2.22 mL/min/kg; Amount excreted in feces for 96 h ([3]; parent form): 9.30 ± 6.17 % of dose; Amount excreted in urine for 96 h ([3]; parent form): 13.8 ± 4.24 % of dose
